Measurements as given in patent publication US11345711B2, “8,9-dihydroimidazo[1,2-a]pyrimido[5,4-e]pyrimidin-5(6H)-ones” (IMPACT THERAPEUTICS (SHANGHAI), INC, priority 2016, dated 2022).
Where two headings read alike, the source gives them in different places.

Tests used:
Wee1 (h) = Wee1 (h) (Homo sapiens, UniProt P30291); assay: Wee1 kinase (h) detection method, [γ-33P]-ATP filter assay; assay type: biochemical
LoVo cells = assay: MTT based cell viability assay on LoVo cells; details: Homo sapiens, LoVo, 72 h, 3 d, read-out: IC50, growth inhibition of LoVo cells
In short: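 Inhibition of LoVo proliferation was derived as IC50 from a sigmoidal dose-response fit of cell survival. Readout was MTT (0.5 mg/mL, 4 h) with absorbance at 552/630/690 nm, after 3-day treatment at 37 °C. Eight-point series from 10 μM to 0.01 μM, DMSO control, 1% DMSO final.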

NCI-H1299 cells = assay: MTT based cell viability assay on NCI-H1299 cells; details: Homo sapiens, read-out: IC50, growth inhibition of NCI-H1299 cells
In short: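 NCI-H1299 cells (1000/well, settled overnight) were exposed for 3 d at 37 °C, 5% CO2, to an eight-point series of 10 μM to 0.01 μM plus DMSO blank, as prepared in DMSO (final DMSO 1‰). MTT (0.5 mg/mL, 4 h) was read at 552/630/690 nm. IC50 came from sigmoidal dose-response fits of survival.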

Chain of Wee1 (h) (P30291 whole entry): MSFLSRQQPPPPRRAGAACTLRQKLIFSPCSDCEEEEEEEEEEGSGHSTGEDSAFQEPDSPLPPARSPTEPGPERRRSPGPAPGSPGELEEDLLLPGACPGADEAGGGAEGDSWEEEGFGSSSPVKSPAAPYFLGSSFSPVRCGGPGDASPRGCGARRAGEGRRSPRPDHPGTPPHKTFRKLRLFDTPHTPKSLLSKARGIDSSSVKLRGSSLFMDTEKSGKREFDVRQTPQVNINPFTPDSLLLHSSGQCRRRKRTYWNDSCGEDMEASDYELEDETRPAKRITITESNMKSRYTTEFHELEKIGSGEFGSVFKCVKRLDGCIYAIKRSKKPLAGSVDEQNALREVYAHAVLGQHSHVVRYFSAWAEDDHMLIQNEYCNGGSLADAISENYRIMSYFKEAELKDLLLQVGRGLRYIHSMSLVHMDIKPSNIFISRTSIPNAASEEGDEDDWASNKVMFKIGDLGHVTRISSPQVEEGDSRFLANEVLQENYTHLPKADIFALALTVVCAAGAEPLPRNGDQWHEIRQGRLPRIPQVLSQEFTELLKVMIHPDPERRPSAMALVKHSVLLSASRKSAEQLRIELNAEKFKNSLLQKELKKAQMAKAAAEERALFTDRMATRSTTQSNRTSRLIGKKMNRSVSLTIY

Q: For Cc1cc(Nc2ncc3c(n2)N2CCN=C2N(c2c(F)cccc2Cl)C3=O)ccc1N1CCC(N(C)C)CC1 [Example 119, 6-(2-Chloro-6-fluorophenyl)-2-((4-(4-(dimethylamino)piperidin-1-yl)-3-methylphenyl)amino)-8,9-dihydroimidazo[1,2-a]pyrimido[5,4-e]pyrimidin-5(6H)-one], which “Inh. (%) of Wee1 kinase enzyme activity” value (Wee1 (h); C 0.01 μm compound) is on record?
A: 24%

Q: What about the “Inh. (%) of Wee1 kinase enzyme activity” value (Wee1 (h); C 0.1 μm compound) of the same compound?
A: 86%

Q: What about the “Inh. (%) of Wee1 kinase enzyme activity” value (Wee1 (h); C 1 μm compound) of the same compound?
A: 99%

Q: What about the IC50 (LoVo cells) of the same compound?
A: 54.3 nM

Q: What about the IC50 (NCI-H1299 cells; NCI-H1299, NCI-H1299 cells) of the same compound?
A: 92.3 nM

Q: Which results are given for Cc1cc(Nc2ncc3c(n2)N2CCN=C2N(c2c(F)cccc2Cl)C3=O)cc(F)c1N1CCC(N(C)C)CC1 [Example 120, 6-(2-Chloro-6-fluorophenyl)-2-((3-fluoro-5-methyl-4-(4-(dimethylamino)piperidin-1-yl)phenyl)amino)-8,9-dihydroimidazo[1,2-a]pyrimido[5,4-e]pyrimidin-5(6H)-one]?
A: Inh. (%) of Wee1 kinase enzyme activity (Wee1 (h); C 0.01 μm compound): 16%; Inh. (%) of Wee1 kinase enzyme activity (Wee1 (h); C 0.1 μm compound): 80%; Inh. (%) of Wee1 kinase enzyme activity (Wee1 (h); C 1 μm compound): 98%; IC50 (LoVo cells): 35.9 nM; IC50 (NCI-H1299 cells; NCI-H1299, NCI-H1299 cells): 59.3 nM

Q: CN1CCN(c2cnc(Nc3ncc4c(n3)N3CCN=C3N(c3c(F)cccc3Cl)C4=O)cn2)CC1 [Example 121, 6-(2-Chloro-6-fluorophenyl)-2-((5-(4-methylpiperazin-1-yl)pyrazin-2-yl)amino)-8,9-dihydroimidazo[1,2-a]pyrimido[5,4-e]pyrimidin-5(6H)-one] was tested. Which “Inh. (%) of Wee1 kinase enzyme activity” value (Wee1 (h); C 1 μm compound) did it give?
A: 15%

Q: And the IC50 (LoVo cells)?
A: > 100000 nM

Q: What about the IC50 (NCI-H1299 cells; NCI-H1299 cells) of the same compound?
A: > 10000 nM

Q: CN1CCN(c2c(Cl)cc(Nc3ncc4c(n3)N3CCN=C3N(c3c(F)cccc3Cl)C4=O)cc2Cl)CC1 [Example 122, 6-(2-Chloro-6-fluorophenyl)-2-((3,5-dichloro-4-(4-methylpiperazin-1-yl)phenyl)amino)-8,9-dihydroimidazo[1,2-a]pyrimido[5,4-e]pyrimidin-5(6H)-one] was tested. Which “Inh. (%) of Wee1 kinase enzyme activity” value (Wee1 (h); C 0.01 μm compound) did it give?
A: 20%

Q: And the “Inh. (%) of Wee1 kinase enzyme activity” value (Wee1 (h); C 0.1 μm compound)?
A: 58%

Q: And the “Inh. (%) of Wee1 kinase enzyme activity” value (Wee1 (h); C 1 μm compound)?
A: 91%

Q: And the IC50 (LoVo cells)?
A: 51.8 nM

Q: And the IC50 (NCI-H1299 cells; NCI-H1299, NCI-H1299 cells)?
A: 334 nM

Q: How did the “Inh. (%) of Wee1 kinase enzyme activity” value (Wee1 (h); C 0.01 μm compound) turn out when Cc1cc(Nc2ncc3c(n2)N2CCN=C2N(c2c(F)cccc2Cl)C3=O)cc(F)c1N1CCN(C)CC1 [Example 123, 6-(2-Chloro-6-fluorophenyl)-2-((3-fluoro-5-methyl-4-(4-methylpiperazin-1-yl)phenyl)amino)-8,9-dihydroimidazo[1,2-a]pyrimido[5,4-e]pyrimidin-5(6H)-one] was run?
A: 43%

Q: What about the “Inh. (%) of Wee1 kinase enzyme activity” value (Wee1 (h); C 0.1 μm compound) of the same compound?
A: 87%

Q: And the “Inh. (%) of Wee1 kinase enzyme activity” value (Wee1 (h); C 1 μm compound)?
A: 97%

Q: And the IC50 (LoVo cells)?
A: 39.1 nM

Q: What about the IC50 (NCI-H1299 cells; NCI-H1299, NCI-H1299 cells) of the same compound?
A: 218 nM

Q: For COc1cc(Nc2ncc3c(n2)N2CCN=C2N(c2c(F)cccc2Cl)C3=O)cc(F)c1N1CCN(C)CC1 [Example 124, 6-(2-Chloro-6-fluorophenyl)-2-((3-fluoro-5-methoxy-4-(4-methylpiperazin-1-yl)phenyl)amino)-8,9-dihydroimidazo[1,2-a]pyrimido[5,4-e]pyrimidin-5(6H)-one], which “Inh. (%) of Wee1 kinase enzyme activity” value (Wee1 (h); C 0.01 μm compound) is on record?
A: 18%

Q: What about the “Inh. (%) of Wee1 kinase enzyme activity” value (Wee1 (h); C 0.1 μm compound) of the same compound?
A: 62%

Q: And the “Inh. (%) of Wee1 kinase enzyme activity” value (Wee1 (h); C 1 μm compound)?
A: 92%

Q: What about the IC50 (LoVo cells) of the same compound?
A: 49.7 nM

Q: What about the IC50 (NCI-H1299 cells; NCI-H1299, NCI-H1299 cells) of the same compound?
A: 138 nM

Q: Which “Inh. (%) of Wee1 kinase enzyme activity” value (Wee1 (h); C 0.01 μm compound) does the source give for Cc1cc(Nc2ncc3c(n2)N2CCN=C2N(c2c(F)cccc2Cl)C3=O)cc(Cl)c1N1CCN(C)CC1 [Example 125, 6-(2-Chloro-6-fluorophenyl)-2-((3-chloro-5-methyl-4-(4-methylpiperazin-1-yl)phenyl)amino)-8,9-dihydroimidazo[1,2-a]pyrimido[5,4-e]pyrimidin-5(6H)-one] here?
A: 18%

Q: What about the “Inh. (%) of Wee1 kinase enzyme activity” value (Wee1 (h); C 0.1 μm compound) of the same compound?
A: 74%

Q: And the “Inh. (%) of Wee1 kinase enzyme activity” value (Wee1 (h); C 1 μm compound)?
A: 95%

Q: What about the IC50 (LoVo cells) of the same compound?
A: 26.4 nM

Q: What about the IC50 (NCI-H1299 cells; NCI-H1299, NCI-H1299 cells) of the same compound?
A: 92.9 nM

Q: With COc1cc(Nc2ncc3c(n2)N2CCN=C2N(c2c(F)cccc2Cl)C3=O)cc(Cl)c1N1CCN(C)CC1 [Example 126, 6-(2-Chloro-6-fluorophenyl)-2-((3-chloro-5-methoxy-4-(4-methylpiperazin-1-yl)phenyl)amino)-8,9-dihydroimidazo[1,2-a]pyrimido[5,4-e]pyrimidin-5(6H)-one] as the compound, how does the “Inh. (%) of Wee1 kinase enzyme activity” value (Wee1 (h); C 1 μm compound) read?
A: 89%

Q: What about the IC50 (LoVo cells) of the same compound?
A: 56.7 nM

Q: And the IC50 (NCI-H1299 cells; NCI-H1299, NCI-H1299 cells)?
A: 67 nM

Q: With COc1cc(Nc2ncc3c(n2)N2CCN=C2N(c2c(F)cccc2Cl)C3=O)cc(Br)c1N1CCN(C)CC1 [Example 127, 6-(2-Chloro-6-fluorophenyl)-2-((3-bromo-5-methoxy-4-(4-methylpiperazin-1-yl)phenyl)amino)-8,9-dihydroimidazo[1,2-a]pyrimido[5,4-e]pyrimidin-5(6H)-one] as the compound, how does the “Inh. (%) of Wee1 kinase enzyme activity” value (Wee1 (h); C 1 μm compound) read?
A: 88%

Q: What about the IC50 (LoVo cells) of the same compound?
A: 42.3 nM

Q: And the IC50 (NCI-H1299 cells; NCI-H1299 cells)?
A: 96.5 nM

Q: Which results are given for Cc1cc(Nc2ncc3c(n2)N2CCN=C2N(c2c(F)cccc2Cl)C3=O)cc(C(F)(F)F)c1N1CCN(C)CC1 [Example 128, 6-(2-Chloro-6-fluorophenyl)-2-((3-methyl-4-(4-methylpiperazin-1-yl)-5-(trifluoromethyl)phenyl)amino)-8,9-dihydroimidazo[1,2-a]pyrimido[5,4-e]pyrimidin-5(6H)-one]?
A: Inh. (%) of Wee1 kinase enzyme activity (Wee1 (h); C 0.01 μm compound): 8%; Inh. (%) of Wee1 kinase enzyme activity (Wee1 (h); C 0.1 μm compound): 61%; Inh. (%) of Wee1 kinase enzyme activity (Wee1 (h); C 1 μm compound): 89%; IC50 (LoVo cells): 68.8 nM; IC50 (NCI-H1299 cells; NCI-H1299, NCI-H1299 cells): 306 nM

Q: Which results are given for COc1cc(Nc2ncc3c(n2)N2CCN=C2N(c2c(F)cccc2Cl)C3=O)cc(C)c1N1CCN(C)CC1 [Example 129, 6-(2-Chloro-6-fluorophenyl)-2-((3-methoxy-5-methyl-4-(4-methylpiperazin-1-yl)phenyl)amino)-8,9-dihydroimidazo[1,2-a]pyrimido[5,4-e]pyrimidin-5(6H)-one]?
A: Inh. (%) of Wee1 kinase enzyme activity (Wee1 (h); C 0.01 μm compound): 26%; Inh. (%) of Wee1 kinase enzyme activity (Wee1 (h); C 0.1 μm compound): 73%; Inh. (%) of Wee1 kinase enzyme activity (Wee1 (h); C 1 μm compound): 93%; IC50 (LoVo cells): 70.3 nM; IC50 (NCI-H1299 cells; NCI-H1299, NCI-H1299 cells): 78.2 nM

Q: Which “Inh. (%) of Wee1 kinase enzyme activity” value (Wee1 (h); C 1 μm compound) does the source give for CN1CCc2c(Cl)cc(Nc3ncc4c(n3)N3CCN=C3N(c3c(Cl)cccc3Cl)C4=O)cc2C1 [Example 130, 6-(2,6-Dichlorophenyl)-2-((5-chloro-2-methyl-1,2,3,4-tetrahydroisoquinolin-7-yl)amino)-8,9-dihydroimidazo[1,2-a]pyrimido[5,4-e]pyrimidin-5(6H)-one] here?
A: 93%

Q: And the IC50 (LoVo cells)?
A: 624 nM

Q: And the IC50 (NCI-H1299 cells; NCI-H1299 cells)?
A: 243 nM

Q: Cc1cc(Nc2ncc3c(n2)N2CCN=C2N(c2c(Cl)cccc2Cl)C3=O)cc2c1CCN(C)C2 [Example 131, 6-(2,6-Dichlorophenyl)-2-((2,5-dimethyl-1,2,3,4-tetrahydroisoquinolin-7-yl)amino)-8,9-dihydroimidazo[1,2-a]pyrimido[5,4-e]pyrimidin-5(6H)-one] was tested. Which “Inh. (%) of Wee1 kinase enzyme activity” value (Wee1 (h); C 0.01 μm compound) did it give?
A: 27%

Q: What about the “Inh. (%) of Wee1 kinase enzyme activity” value (Wee1 (h); C 0.1 μm compound) of the same compound?
A: 89%

Q: What about the “Inh. (%) of Wee1 kinase enzyme activity” value (Wee1 (h); C 1 μm compound) of the same compound?
A: 100%

Q: What about the IC50 (LoVo cells) of the same compound?
A: 187 nM

Q: And the IC50 (NCI-H1299 cells; NCI-H1299, NCI-H1299 cells)?
A: 58.8 nM

Q: Which results are given for Cc1cc(Nc2ncc3c(n2)N2CCN=C2N(c2c(Cl)cccc2Cl)C3=O)cc2c1C(C)(C)CN(C)C2 [Example 133, 6-(2,6-Dichlorophenyl)-2-((2,4,4,5-tetramethyl-1,2,3,4-tetrahydroisoquinolin-7-yl)amino)-8,9-dihydroimidazo[1,2-a]pyrimido[5,4-e]pyrimidin-5(6H)-one]?
A: Inh. (%) of Wee1 kinase enzyme activity (Wee1 (h); C 1 μm compound): 95%; IC50 (LoVo cells): 165 nM; IC50 (NCI-H1299 cells; NCI-H1299, NCI-H1299 cells): 46 nM

Q: Which results are given for C[C@@H]1CN(c2c(Cl)cc(Nc3ncc4c(n3)N3CCN=C3N(c3c(Cl)cccc3Cl)C4=O)cc2Cl)C[C@H](C)N1C [Example 136, 6-(2,6-Dichlorophenyl)-2-((3,5-dichloro-4-((3S,5R)-3,4,5-trimethylpiperazin-1-yl)phenyl)amino)-8,9-dihydroimidazo[1,2-a]pyrimido[5,4-e]pyrimidin-5(6H)-one]?
A: Inh. (%) of Wee1 kinase enzyme activity (Wee1 (h); C 0.01 μm compound): 36%; Inh. (%) of Wee1 kinase enzyme activity (Wee1 (h); C 0.1 μm compound): 75%; Inh. (%) of Wee1 kinase enzyme activity (Wee1 (h); C 1 μm compound): 94%; IC50 (LoVo cells): 214 nM; IC50 (NCI-H1299 cells; NCI-H1299, NCI-H1299 cells): 310 nM
